Values after ≈ are worked out from the molar mass of the structure shown. Where two headings read alike, the source gives them in different places.
Tests used:
Escherichia coli = test: MIC, agar dilution, Escherichia coli; assay type: cell-based; conditions: Escherichia coli, read-out: MIC
Protocol: (§1) Stock solution of each test antibiotic compound were prepared to have a concentration of 2 mg. of the test compound per milliliter in sterile water of 0.1M ammonium acetate solution. The amount of each compound used was adjusted for base compound activity as calculated from the purity data for the selected batch of compound.
(§2) The dilution procedure described by Washington and Sutter [Manual of Clinical Microbiology, 3rd, Edit. (Lennett, E. H. et al, Eds.), pp. 453-458 (1980), American Society for Microbiology, Washington, D.C.] was modified so that serial concentrations of 128 to 0.0625 microgram/ml. in sterile water was obtained. Then 1.5 ml. aliquots of these test antibiotic dilution mixtures are added to 13.5 molten (50° C.) Mueller-Hinton agar. Each resulting mixture is poured into 15×100 mm, sterile Petri plates and allowed to dry at room temperature overnight.
(§3) Test bacterial cultures are maintained at -70° C. on glass beads. [See R. J. Yancey, Jr. et al, Amer. Jr. of Vet. Research, 48, No. 7, pp. 1050-1053, (1987)]. At least one bacteria-laden bead per culture is dropped into one ml. of brain heart infusion (BHI) broth for overnight culture at 37° C. in 5% V/V carbon dioxide in air atmosphere.
(§4) On the data of assay, 2 to 8 drops of the bacterial broth cultures are transferred to fresh BHI broth (1 ml.) and the mixture is incubated for 4 to 6 hours at 37° C. in a 5% V/V carbon dioxide in air atmosphere. The resulting cultures are then diluted to match a 0.5 MacFarland standard and further diluted 1:20 V/V with sterile saline solution.
(§5) A 0.001 ml. drop of the resulting mixture, containing approximately 10^3 to 10^4 colony forming units (CFU) of each test bacteria organism, is dispensed onto the surface of the test antibiotic compound test plates with a Steer's type replicator. The resulting innoculated plates are incubated 16 to 18 hours at 37° C. with a carbon dioxide atmosphere.
as §1, with “Stock solutions” for “Stock solution”
as §2, with “mm.” for “mm,”
as §2, with “for Microbiology.” for “for Microbiology,”, “15×100 mm.” for “15×100 mm,”
as §3, with “culture” for “cultures”
(§6) On the day of assay, 2 to 8 drops of the bacterial broth cultures are transferred to fresh BHI broth (1 ml.) and the mixture is incubated for 4 to 6 hours at 37° C. in a 5% V/V carbon dioxide in air atmosphere. […]

Pasteurella multocida = test: MIC, agar dilution, Pasteurella multocida; assay type: cell-based; conditions: Pasteurella multocida; strain UC9581; read-out: MIC
Protocol: as §1, §2, §3, §4, §5
as §1, with “Stock solutions” for “Stock solution”
as §2, with “mm.” for “mm,”
as §2, with “for Microbiology.” for “for Microbiology,”, “15×100 mm.” for “15×100 mm,”
as §3, with “culture” for “cultures”
as §6

Micrococcus luteus = test: MIC, agar dilution, Micrococcus luteus; assay type: cell-based; conditions: Micrococcus luteus; strain UC130; read-out: MIC
Protocol: as §1, §2, §3, §4, §5
as §1, with “Stock solutions” for “Stock solution”
as §2, with “mm.” for “mm,”
as §2, with “for Microbiology.” for “for Microbiology,”, “15×100 mm.” for “15×100 mm,”
as §3, with “culture” for “cultures”
as §6

Salmonella choleraesuis = test: MIC, agar dilution, Salmonella choleraesuis; assay type: cell-based; conditions: Salmonella enterica, read-out: MIC
Protocol: as §1, §2, §3, §4, §5
as §1, with “Stock solutions” for “Stock solution”
as §2, with “mm.” for “mm,”
as §2, with “for Microbiology.” for “for Microbiology,”, “15×100 mm.” for “15×100 mm,”
as §3, with “culture” for “cultures”
as §6

Enterococcus faecalis = test: MIC, agar dilution, Enterococcus faecalis; assay type: cell-based; conditions: Enterococcus faecalis; strain UC694; read-out: MIC
Protocol: as §1, with “Stock solutions” for “Stock solution”
as §2, §3, §4, §5, §1
as §2, with “mm.” for “mm,”
as §2, with “for Microbiology.” for “for Microbiology,”, “15×100 mm.” for “15×100 mm,”
as §3, with “culture” for “cultures”
as §6

[1] = system: Bordetella bronchiseptica; test: MIC, agar dilution, Bordetella bronchiseptica; assay type: cell-based; conditions: Bordetella bronchiseptica; strain UC6313; read-out: MIC
Protocol: as §1, §2, §3, §4, §5
as §1, with “Stock solutions” for “Stock solution”
as §2, with “mm.” for “mm,”
as §2, with “for Microbiology.” for “for Microbiology,”, “15×100 mm.” for “15×100 mm,”
as §3, with “culture” for “cultures”
as §6

Corynebacterium pyogenes = test: MIC, agar dilution, Corynebacterium pyogenes; assay type: cell-based; conditions: strain 213-2; read-out: MIC
Protocol: as §1, §2, §3, §4, §5
as §1, with “Stock solutions” for “Stock solution”
as §2, with “mm.” for “mm,”
as §2, with “for Microbiology.” for “for Microbiology,”, “15×100 mm.” for “15×100 mm,”
as §3, with “culture” for “cultures”
as §6

Streptococcus agalactiae = test: MIC, agar dilution, Streptococcus agalactiae; assay type: cell-based; conditions: Streptococcus agalactiae, read-out: MIC
Protocol: as §1, §2, §3, §4, §5
as §1, with “Stock solutions” for “Stock solution”
as §2, with “mm.” for “mm,”
as §2, with “for Microbiology.” for “for Microbiology,”, “15×100 mm.” for “15×100 mm,”
as §3, with “culture” for “cultures”
as §6

[2] = Serum half life / duration of antibiotic action; conditions: inferred from results against Salmonella typhimurium
Enterococcus faecium = test: MIC, agar dilution, Enterococcus faecium; assay type: cell-based; conditions: Enterococcus faecium; strain UC241; read-out: MIC
Protocol: as §1, with “Stock solutions” for “Stock solution”
as §2, §3, §4, §5, §1
as §2, with “mm.” for “mm,”
as §2, with “for Microbiology.” for “for Microbiology,”, “15×100 mm.” for “15×100 mm,”
as §3, with “culture” for “cultures”
as §6

Streptococcus bovis = test: MIC, agar dilution, Streptococcus bovis; assay type: cell-based; conditions: Streptococcus equinus; strain UC6281; read-out: MIC
Protocol: as §1, §2, §3, §4, §5
as §1, with “Stock solutions” for “Stock solution”
as §2, with “mm.” for “mm,”
as §2, with “for Microbiology.” for “for Microbiology,”, “15×100 mm.” for “15×100 mm,”
as §3, with “culture” for “cultures”
as §6

Pasteurella hemolytica = test: MIC (minimum inhibitory concentration), agar dilution, Pasteurella hemolytica; assay type: cell-based; conditions: Pasteurella, read-out: MIC
Protocol: as §1, §2, §3, §4, §5
as §1, with “Stock solutions” for “Stock solution”
as §2, with “mm.” for “mm,”
as §2, with “for Microbiology.” for “for Microbiology,”, “15×100 mm.” for “15×100 mm,”
as §3, with “culture” for “cultures”
as §6

Pseudomonas aeruginosa = test: MIC, agar dilution, Pseudomonas aeruginosa; assay type: cell-based; conditions: Pseudomonas aeruginosa, ATCC27853; strain ATCC 27853; read-out: MIC
Protocol: as §1, §2, §3, §4, §5
as §1, with “Stock solutions” for “Stock solution”
as §2, with “mm.” for “mm,”
as §2, with “for Microbiology.” for “for Microbiology,”, “15×100 mm.” for “15×100 mm,”
as §3, with “culture” for “cultures”
as §6

Salmonella typhimurium = test: MIC, agar dilution, Salmonella typhimurium; assay type: cell-based; conditions: Salmonella enterica, read-out: MIC
Protocol: as §1, §2, §3, §4, §5
as §1, with “Stock solutions” for “Stock solution”
as §2, with “mm.” for “mm,”
as §2, with “for Microbiology.” for “for Microbiology,”, “15×100 mm.” for “15×100 mm,”
as §3, with “culture” for “cultures”
as §6

Staphylococcus aureus = test: MIC, agar dilution, Staphylococcus aureus; assay type: cell-based; conditions: Staphylococcus aureus, read-out: MIC
Protocol: as §1, §2, §3, §4, §5
as §1, with “Stock solutions” for “Stock solution”
as §2, with “mm.” for “mm,”
as §2, with “for Microbiology.” for “for Microbiology,”, “15×100 mm.” for “15×100 mm,”
as §3, with “culture” for “cultures”
as §6

Streptococcus uberis = test: MIC, agar dilution, Streptococcus uberis; assay type: cell-based; conditions: Streptococcus uberis, read-out: MIC
Protocol: as §1, §2, §3, §4, §5
as §1, with “Stock solutions” for “Stock solution”
as §2, with “mm.” for “mm,”
as §2, with “for Microbiology.” for “for Microbiology,”, “15×100 mm.” for “15×100 mm,”
as §3, with “culture” for “cultures”
as §6

[3] = system: Streptococcus dysgalactiae; test: MIC, agar dilution, Streptococcus dysgalactiae; assay type: cell-based; conditions: Streptococcus dysgalactiae; strain UC251; read-out: MIC
Protocol: as §1, §2, §3, §4, §5
as §1, with “Stock solutions” for “Stock solution”
as §2, with “mm.” for “mm,”
as §2, with “for Microbiology.” for “for Microbiology,”, “15×100 mm.” for “15×100 mm,”
as §3, with “culture” for “cultures”
as §6

Streptococcus suis = test: MIC, agar dilution, Streptococcus suis; assay type: cell-based; conditions: Streptococcus suis; strain 650-2; read-out: MIC
Protocol: as §1, §2, §3, §4, §5
as §1, with “Stock solutions” for “Stock solution”
as §2, with “mm.” for “mm,”
as §2, with “for Microbiology.” for “for Microbiology,”, “15×100 mm.” for “15×100 mm,”
as §3, with “culture” for “cultures”
as §6

[4] = CHOLERAESUIS / UC6073, strain UC6073
[5] = CHOLERAESUIS / UC6077, strain UC6077
[6] = TYPHIMURIUM / UC6162, strain UC6162
[7] = TYPHIMURIUM / UC6164, strain UC6164

MIC (Escherichia coli; strain UC3784) [µg/mL] | MIC (Escherichia coli; strain UC6720) [µg/mL] | MIC (Escherichia coli; strain UC9670) [µg/mL] | MIC (Pasteurella multocida) [µg/mL] | MIC (Micrococcus luteus) [µg/mL] | MIC (Enterococcus faecalis) [µg/mL] | MIC [1] [µg/mL] | MIC (Corynebacterium pyogenes) [µg/mL] | MIC (Streptococcus agalactiae; strain UC3947) [µg/mL] | MIC (Streptococcus agalactiae; strain UC6892) [µg/mL] | MIC (Enterococcus faecium) [µg/mL] | MIC (Streptococcus bovis) [µg/mL] | MIC (Pseudomonas aeruginosa) [µg/mL] | MIC (Salmonella typhimurium; [6]) [µg/mL] | MIC (Salmonella typhimurium; [7]) [µg/mL] | Structure (SMILES) | MIC (Salmonella choleraesuis; [4]) [µg/mL] | MIC (Salmonella choleraesuis; [5]) [µg/mL] | MIC (Pasteurella hemolytica; strain UC6531) [µg/mL] | MIC (Pasteurella hemolytica; strain UC6532) [µg/mL] | MIC (Pasteurella hemolytica; strain UC9582) [µg/mL] | further results
1 (≈ 2.06 µM) | 1 (≈ 2.06 µM) | 1 (≈ 2.06 µM) | ≤ 0.06 | 0.25 (≈ 0.514 µM) | > 32 | > 32 | 16 (≈ 32.9 µM) | ≤ 0.06 | ≤ 0.06 | > 32 | 0.13 (≈ 0.267 µM) | > 32 | 1 (≈ 2.06 µM) | 1 (≈ 2.06 µM) | CO/N=C(\C(=O)N[C@@H]1C(=O)N2C(C(=O)O)=C(CSCC(N)=O)CS[C@H]12)c1csc(N)n1 [Example 7, 7-[2-(2-amino-1,3-thiazol-4-yl)-2-(methoxyimino)acetamido]-3-(aminocarbonylmethylthiomethyl)-3-cephem-4-carboxylic acid] | 1 (≈ 2.06 µM) | 2 (≈ 4.11 µM) | ≤ 0.06 | ≤ 0.06 | ≤ 0.06 | serum half life [2]: longer serum half life; MIC (Staphylococcus aureus; strain UC6093): 4 µg/mL (≈ 8.22 µM); MIC (Staphylococcus aureus; strain UC6097): 4 µg/mL (≈ 8.22 µM); MIC (Staphylococcus aureus; strain UC9203): 4 µg/mL (≈ 8.22 µM); MIC (Streptococcus uberis; strain UC3946): 0.13 µg/mL (≈ 0.267 µM); MIC (Streptococcus uberis; strain UC6159): 32 µg/mL (≈ 65.8 µM); MIC [3]: ≤ 0.06 µg/mL; MIC (Streptococcus suis): 0.13 µg/mL (≈ 0.267 µM)
1 (≈ 1.72 µM) | 2 (≈ 3.43 µM) | 1 (≈ 1.72 µM) | ≤ 0.06 | ≤ 0.06 | > 32 | > 32 | 0.25 (≈ 0.429 µM) | ≤ 0.06 | ≤ 0.06 | > 32 | ≤ 0.06 | > 32 | 4 (≈ 6.86 µM) | 2 (≈ 3.43 µM) | CO/N=C(\C(=O)N[C@@H]1C(=O)N2C(C(=O)O)=C(CSSc3ccc([N+](=O)[O-])cc3)CS[C@H]12)c1csc(N)n1 [Example 18] | 2 (≈ 3.43 µM) | 4 (≈ 6.86 µM) | 0.25 (≈ 0.429 µM) | ≤ 0.06 | ≤ 0.06 | MIC (Staphylococcus aureus; strain UC6093): 2 µg/mL (≈ 3.43 µM); MIC (Staphylococcus aureus; strain UC6097): 2 µg/mL (≈ 3.43 µM); MIC (Staphylococcus aureus; strain UC9203): 2 µg/mL (≈ 3.43 µM); MIC (Streptococcus uberis; strain UC3946): 0.25 µg/mL (≈ 0.429 µM); MIC (Streptococcus uberis; strain UC6159): 8 µg/mL (≈ 13.7 µM); MIC [3]: ≤ 0.06 µg/mL; MIC (Streptococcus suis): ≤ 0.06 µg/mL

— patent US5134137A, “Cephalosporin antibiotics” (The Upjohn Company, priority 1990, dated 1992)
